Data: US7186831B2, “5-halo-2-alkyl[1,2,4]triazolo[1,5-a]pyrimidin-7-amines” (priority 2001, dated 2007)

Assay: log P by HPLC
Type: physicochemical
Settings: EEC directive 79/831 Annex V. A8 by HPLC (gradient method, acetonitrile/0.1% aqueous phosphoric acid)

SMILES | logP
Cc1nc2nc(Cl)c(-c3c(F)cccc3F)c(NOCc3ccc(C(F)(F)F)cc3)n2n1 [compound 430] | 3.44
C=C(C)CNc1c(-c2c(F)cccc2Cl)c(Cl)nc2nc(C3CC3)nn12 [compound 483] | 3.31
Cc1nc2nc(Cl)c(-c3c(F)cccc3F)c(NOCc3ccc(F)cc3)n2n1 [compound 432] | 2.9
CCC1=CCN(c2c(-c3ccc(F)cc3F)c(Cl)nc3nc(C)nn23)CC1 [compound 290] | 3.94
Cc1nc2nc(Cl)c(-c3c(F)cccc3Cl)c(N3CCC(C)CC3)n2n1 [compound 262] | 3.99
Cc1nc2nc(Cl)c(-c3ccccc3F)c(NC3CC3)n2n1 [compound 390] | 2.41
C=CCN(C)c1c(-c2c(F)cccc2F)c(Cl)nc2nc(C)nn12 [compound 333] | 2.95
Cc1nc2nc(Cl)c(-c3c(F)cccc3Cl)c(N3CCC(F)CC3)n2n1 [compound 266] | 3.07
Cc1nc2nc(Cl)c(-c3ccc(F)cc3F)c(NC3CCCC3)n2n1 [compound 405] | 3.24
Cc1nc2nc(Cl)c(-c3ccc(F)cc3F)c(NC3CCC(C(F)(F)F)CC3)n2n1 (centres unmarked) [compound 409] | 3.56
C=CCN(CC)c1c(-c2c(F)cccc2Cl)c(Cl)nc2nc(C)nn12 [compound 267] | 3.59
Cc1cccc(Nc2c(-c3c(F)cccc3F)c(Cl)nc3nc(C)nn23)c1 [compound 326] | 2.89
Cc1nc2nc(Cl)c(-c3c(F)cccc3Cl)c(N3CCC(O)C3)n2n1 (centres unmarked) [compound 278] | 2.02
Cc1nc2nc(Cl)c(-c3c(F)cccc3F)c(N3CCC(Br)CC3)n2n1 [compound 319] | 3.33
CC(C)CN(C)c1c(-c2ccccc2Cl)c(Cl)nc2nc(C3CC3)nn12 [compound 497] | 4.41
Cc1nc2nc(Cl)c(-c3c(F)cccc3F)c(N3CCCc4ccccc43)n2n1 [compound 446] | 3.34
CCN(Cc1ccco1)c1c(-c2c(F)cccc2F)c(Cl)nc2nc(C)nn12 [compound 340] | 3.28
Cc1nc2nc(Cl)c(-c3ccccc3F)c(NC(C)C)n2n1 [compound 386] | 2.63
C=CCONc1c(-c2ccccc2F)c(Cl)nc2nc(C)nn12 [compound 373] | 2.42
Cc1nc2nc(Cl)c(-c3ccccc3F)c(NOCc3ccc(C(F)(F)F)cc3)n2n1 [compound 365] | 3.43
Cc1nc2nc(Cl)c(-c3ccccc3F)c(NOCc3cccc(Cl)c3)n2n1 [compound 367] | 3.28
CC(C)CNc1c(-c2c(F)cc(F)cc2F)c(Cl)nc2nc(C3CC3)nn12 [compound 460] | 3.69
Cc1nc2nc(Cl)c(-c3c(F)cc(F)cc3F)c(N(C)CC3CC3(Cl)Cl)n2n1 (centres unmarked) [compound 502] | 3.68
CCN(CCC#N)c1c(-c2ccc(F)cc2F)c(Cl)nc2nc(C)nn12 [compound 413] | 2.58
Cc1nc2nc(Cl)c(-c3c(F)cccc3F)c(NOCc3c(Cl)cccc3Cl)n2n1 [compound 435] | 3.31
CC(Nc1c(-c2c(F)cccc2Cl)c(Cl)nc2nc(C3CC3)nn12)C(F)(F)F (centres unmarked) [compound 457] | 3.59
Fc1cc(F)c(-c2c(Cl)nc3nc(C4CC4)nn3c2N2CCCCC2)c(F)c1 [compound 474] | 4.22
COC(=O)C1CCCCN1c1c(-c2c(F)cccc2F)c(Cl)nc2nc(C)nn12 (centres unmarked) [compound 320] | 3.04
Cc1nc2nc(Cl)c(-c3ccccc3F)c(NC3CC(C(F)(F)F)CC(C(F)(F)F)C3)n2n1 (centres unmarked) [compound 399] | 3.73
Fc1ccc(-c2c(Cl)nc3nc(C4CC4)nn3c2N2CCCCN2)c(Cl)c1 [compound 504] | 3.58

Same assay, conditions: HPLC, gradient method, acetonitrile/0.1% aqueous phosphoric acid; EEC directive 79/831 Annex V. A8

SMILES | logP
CC1=CCCN(c2c(-c3ccc(F)cc3F)c(Cl)nc3nc(C(F)(F)F)nn23)C1 [compound 802] | 4.55
Cc1nc2nc(Cl)c(-c3c(F)cc(F)cc3F)c(N3CCC(C(F)(F)F)CC3)n2n1 [compound 67] | 3.6
Cc1nc2nc(Cl)c(-c3c(F)cccc3F)c(NOCC(C)C)n2n1 [compound 135] | 2.88
Cc1nc2nc(Cl)c(-c3c(F)cccc3F)c(NOCc3cccc(Cl)c3)n2n1 [compound 137] | 3.21
Fc1ccc(-c2c(Cl)nc3nc(C(F)(F)F)nn3c2NCC(F)(F)F)c(F)c1 [compound 532] | 3.58
CCCN(CC1CCCO1)c1c(-c2ccc(F)cc2F)c(Cl)nc2nc(C3CC3)nn12 (centres unmarked) [compound 600] | 4.22
CCC(C)Nc1c(-c2ccccc2Cl)c(Cl)nc2nc(C)nn12 (centres unmarked) [compound 212] | 3.09
C=C(C)CN(C)c1c(-c2ccc(F)cc2F)c(Cl)nc2nc(C3CC3)nn12 [compound 670] | 4.05
OC1CCCN(c2c(-c3ccc(F)cc3F)c(Cl)nc3nc(C(F)(F)F)nn23)C1 (centres unmarked) [compound 799] | 3.07
C=CCN(CC)c1c(-c2ccc(F)cc2F)c(Cl)nc2nc(C)nn12 [compound 207] | 3.35
C=C(C)CNc1c(-c2c(F)cc(F)cc2F)c(Cl)nc2nc(CC)nn12 [compound 21] | 3.15
CCN(CCC#N)c1c(-c2ccc(F)cc2F)c(Cl)nc2nc(C(F)(F)F)nn12 [compound 550] | 3.46
Fc1cccc(F)c1-c1c(Cl)nc2nc(C3CC3)nn2c1N1CCOCC1 [compound 683] | 2.78
C#CCN(C)c1c(-c2c(F)cc(F)cc2F)c(Cl)nc2nc(C)nn12 [compound 149] | 2.77
COCCNc1c(-c2c(F)cccc2F)c(Cl)nc2nc(C)nn12 [compound 177] | 2.12
CCc1nc2nc(Cl)c(-c3c(F)cc(F)cc3F)c(N3CCCC3)n2n1 [compound 72] | 3.29
Fc1cccc(F)c1-c1c(Cl)nc2nc(C3CC3)nn2c1N1CCCCO1 [compound 753] | 3.47
Cc1nc2nc(Cl)c(-c3ccccc3Cl)c(N(C)CC(C)C)n2n1 [compound 221] | 3.65
CCCN(Cc1cccs1)c1c(-c2c(F)cccc2F)c(Cl)nc2nc(C)nn12 [compound 570] | 3.96
OC1CCN(c2c(-c3ccc(F)cc3F)c(Cl)nc3nc(C4CC4)nn23)CC1 [compound 607] | 2.29
OC1CCN(c2c(-c3ccc(F)cc3F)c(Cl)nc3nc(C4CC4)nn23)C1 (centres unmarked) [compound 603] | 2.2
C=C(C)CN(CC)c1c(-c2ccc(F)cc2F)c(Cl)nc2nc(C)nn12 [compound 96] | 3.73
CC(C)CNc1c(-c2ccc(Cl)cc2Cl)c(Cl)nc2nc(C3CC3)nn12 [compound 790] | 4.3
Cc1nc2nc(Cl)c(-c3c(F)cccc3F)c(N(CCN)C(C)C)n2n1 [compound 571] | 1.28
CCc1nc2nc(Cl)c(-c3c(F)cc(F)cc3F)c(N3CCSCC3)n2n1 [compound 80] | 3.53
CCCN(CCOC)c1c(-c2ccc(F)cc2F)c(Cl)nc2nc(C(F)(F)F)nn12 [compound 553] | 4.39
CN(C)c1c(-c2ccccc2Cl)c(Cl)nc2nc(C3CC3)nn12 [compound 36] | 3.13

SMILES | logP
CCC(C)Nc1c(-c2c(F)cccc2F)c(Cl)nc2nc(C3CC3)nn12 (centres unmarked) [compound 761] | 3.44
Fc1ccc(-c2c(Cl)nc3nc(C4CC4)nn3c2NCC(F)(F)F)c(Cl)c1 [compound 638] | 3.37
Cc1nc2nc(Cl)c(-c3ccc(F)c(Cl)c3)c(NC(C)C)n2n1 [compound 82] | 3.01
Fc1cccc(F)c1-c1c(Cl)nc2nc(C3CC3)nn2c1NCC(F)F [compound 763] | 2.72
CCCCN(CC)c1c(-c2c(F)cc(F)cc2F)c(Cl)nc2nc(C)nn12 [compound 161] | 4.08
CCN(CCN(C)C)c1c(-c2c(F)cc(F)cc2F)c(Cl)nc2nc(C)nn12 [compound 156] | 1.59
COC(CN(C)c1c(-c2ccc(F)cc2F)c(Cl)nc2nc(C3CC3)nn12)OC [compound 666] | 3.24
CC1CCCCN1c1c(-c2c(F)cc(F)cc2F)c(Cl)nc2nc(C3CC3)nn12 (centres unmarked) [compound 674] | 4.6
Fc1ccc(-c2c(Cl)nc3nc(C4CC4)nn3c2NCCC(F)(F)F)c(F)c1 [compound 648] | 3.25
Cc1nc2nc(Cl)c(-c3ccccc3Cl)c(N3CCC(O)C3)n2n1 (centres unmarked) [compound 245] | 0.75
CC(C)C(C)Nc1c(-c2c(F)cc(F)cc2F)c(Cl)nc2nc(C3CC3)nn12 (centres unmarked) [compound 581] | 4.03
CCN(CC)c1c(-c2ccc(F)cc2Cl)c(Cl)nc2nc(C3CC3)nn12 [compound 632] | 4.13
CC(Nc1c(-c2ccc(F)cc2F)c(Cl)nc2nc(C(F)(F)F)nn12)C1CCCCC1 (centres unmarked) [compound 557] | 5.12
CCc1nc2nc(Cl)c(-c3c(F)cc(F)cc3F)c(NC(C)C)n2n1 [compound 76] | 3.15
COCCNc1c(-c2c(F)cccc2Cl)c(Cl)nc2nc(C)nn12 [compound 257] | 2.42
Cc1nc2nc(Cl)c(-c3ccccc3Cl)c(N3CC=CCC3)n2n1 [compound 228] | 0.75
Cc1nc2nc(Cl)c(-c3ccccc3Cl)c(NC(C)C(C)C)n2n1 (centres unmarked) [compound 696] | 3.46
CC(Nc1c(-c2c(F)cccc2F)c(Cl)nc2nc(C3CC3)nn12)C(F)(F)F (centres unmarked) [compound 764] | 3.98
Cc1nc2nc(Cl)c(-c3c(F)cccc3Cl)c(NC3CCCC3)n2n1 [compound 255] | 3.29
CCCCNc1c(-c2ccc(F)cc2F)c(Cl)nc2nc(C3CC3)nn12 [compound 645] | 3.6
Cc1nc2nc(Cl)c(-c3c(F)cccc3F)c(NC3CC3)n2n1 [compound 178] | 2.28
Cc1nc2nc(Cl)c(-c3ccc(F)cc3Cl)c(NCC(F)(F)F)n2n1 [compound 766] | 2.8
CCCN(CC1CC1)c1c(-c2c(F)cc(F)cc2F)c(Cl)nc2nc(C)nn12 [compound 162] | 4.08
Cc1nc2nc(Cl)c(-c3c(F)cccc3F)c(NC(C)C(C)(C)C)n2n1 (centres unmarked) [compound 685] | 3.56
CC(C)Nc1c(-c2c(F)cccc2F)c(Cl)nc2nc(C3CC3)nn12 [compound 739] | 3.14
Cc1nc2nc(Cl)c(-c3c(F)cc(F)cc3F)c(N3CCCCC3C)n2n1 (centres unmarked) [compound 164] | 3.81
